Experiment [1] has as its system UTI89 biofilm. Briefly: UTI89 type 1 dependent biofilm formation (inhibition/prevention) assay on PVC, crystal violet. The experiment is classed as cell-based, uropathogenic E. coli UTI89. An outline of the steps:
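Prevention: UTI89 grown in LB in PVC wells at 23° C with mannoside at varying concentrations for 48 h, then crystal violet stained and quantified. Disruption: 24 h UTI89 biofilm, mannoside added, grown 16 h more, then crystal violet.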

Experiment [2] addresses T1, FimH lectin domain (Escherichia coli, UniProt P08191).
T1 construct: made by biotinylating FimH lectin domain^25 at a 1:1 molar ratio with NHS-PEO4-Biotin
Briefly: biochemical. The experiment is classed as binding, E. coli. As to the method:
Samples or buffer (200 μL per well) were dispensed into 96-well microtiter plates (Greiner Bio-One, Monroe N.C.) and maintained at 30° C. with 1000 RPM shaking. Pre-manufactured pins for individual assays were made by biotinylating FimH lectin domain^25 at a 1:1 molar ratio with NHS-PEO4-Biotin (Thermo Fisher, Rockford Ill.), diluting it to 50 μg/ml in 20 mM HEPES pH 7.5, 150 mM NaCl (HBS), immobilizing it on high-binding streptavidin-coated biosensor tips (Super Streptavidin, ForteBio, Inc., Menlo Park, Calif.) for 10 minutes at 30° C., blocking the pins with 10 μg/ml biocytin for 2 minutes, washing in HBS for 1 hour, and rinsing in 15% sucrose in HBS. Pins were then air dried for 30 minutes and stored in their original packaging with a dessicant packet. Assays were performed by re-wetting premade pins with HBS for 15 minutes, then storing them in fresh HBS until use. […] Each experimental pin was referenced to a biocytin-blocked pin to control for instrument drift and a second biocytin-blocked pin that was passed through a duplicate experiment in the same 96-well plate to control for nonspecific binding of the compound to the pin. Kinetics data and affinity constants were generated automatically by the global fitting protocol in ForteBio Data Analysis version 6.3.

Where two headings read alike, the source gives them in different places.

One may read the IC50 as the concentration needed to halve the response being measured. Broadly, the Kd is the equilibrium constant for the complex coming apart.

T1 sequence (P08191 22-179): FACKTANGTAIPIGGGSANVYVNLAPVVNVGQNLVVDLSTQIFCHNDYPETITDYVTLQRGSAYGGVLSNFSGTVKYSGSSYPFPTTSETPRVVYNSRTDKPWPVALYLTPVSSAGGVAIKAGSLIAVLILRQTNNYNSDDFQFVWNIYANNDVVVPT

For `COC(=O)c1cccc(-c2ccc(O[C@H]3O[C@H](CO)[C@@H](O)[C@H](O)[C@@H]3O)cc2)c1` [Compound 1, phenyl mannoside, reference compound], in experiment [1] (Escherichia coli, read-out: Biofilm Prevention IC50), the IC50 was determined as 940 nM. Also, the “Kd, qualitative” value in experiment [2] was “picomolar range”. Moreover, in experiment [2] (Table 20, read-out: Octet Kd), the Kd was found to be 0.08 nM.

For `CNC(=O)c1cc(C(=O)NC)cc(-c2ccc(O[C@H]3O[C@H](CO)[C@@H](O)[C@H](O)[C@@H]3O)cc2)c1` [ZFH-2056], the IC50 in experiment [1] (read-out: biofilm inhibition IC50) turned out to be 740 nM.
